We go through one compound from patent publication US20210308101A1, “METHODS OF TREATING FIBROMYALGIA” (Aptinyx Inc., priority 2019, published 2021).

Common to all, as to assay type: in vivo, human
For assay [1], the system named is subjects with fibromyalgia. As to the kind of experiment: QST: digital algometer pressure pain threshold (trapezius, wrist, patella). As for the experimental part:
Localized pressure pain sensitivity was also measured bilaterally at 3 additional body regions: trapezius, wrist, and patella. Examination of multiple sites across all quadrants of the body permitted analysis of the distribution of pain sensitivity. Sensitivity was measured using a digital algometer with a 1-cm^2 flat rubber probe. […] Measurements were conducted 2 to 3 times (15- to 20-second intervals) at each site.
(§1) QST data were analyzed at the University of Michigan CPFRC. Dependent variables were the MAST derived outcomes (Pain50, pressure pain threshold, pain tolerance, and pain ratings at 2 kg/cm2), algometry-derived pressure pain thresholds (mean of three trials) at each anatomical site, average cuff intensity ratings (mean of ratings at all stimulus levels during the ascending or random sequences), and average visual task unpleasantness and brightness intensity ratings (mean of ratings at all stimulus levels). Practice data were not analyzed. Overall pain intensity and unpleasantness NRS scores as well as stimulus response curves for each test were assessed during post hoc analyses. Data points displaying measurement artefacts, including device malfunction or user error, were set to missing. Single subject QST variables were analyzed using paired t-tests and/or nonparametric Wilcoxon signed-rank tests in SPSS or R.

Assay [2] relates to subjects with fibromyalgia. As to the kind of experiment: PROMIS Sleep Disturbance short form. The note with it: not statistically significant. The text has this:
As used herein, the “PROMIS Sleep Disturbance” short form is Patient Reported Outcomes Measurement Information System Sleep Disturbance—Short Form. The PROMIS Sleep Disturbance short form version 1.0 8b is an 8-item instrument that assesses sleep disturbance in subjects 18 years and older. All 8 questions are based on a 5-point numerical rating scale/Likert scale ranging from 1 to 5 with different categorical responses. Lower scores represent a better quality of life. The total score was calculated by taking the sum of all 8 questions and ranged from 8 to 40. If at least 4 questions were answered, the total score was imputed if missing responses were present. The total score was multiplied by 8/(number of questions answered) and rounded off to the nearest whole number. Otherwise, the total score was set to missing.
The PROMIS Sleep Disturbance short form assessment was collected and analyzed at visits Screening, Day 1, Week 2, Week 4, Week 6, and Follow-up (Week 7). The observed total score, changes from baseline, and changes from treatment periods were summarized using descriptive statistics. Additionally, the treatment group comparisons were analyzed using the paired t-test and nonparametric Wilcoxon signed-rank test. All PROMIS Sleep Disturbance short form data collected and the calculated total score at each visit were presented in a subject listing.

Assay [3] deals with subjects with fibromyalgia. As to the kind of experiment: Multidimensional Inventory of Subject Cognitive Impairment (MISCI). The conditions noted are these: not statistically significant. The source says: As used herein, “MISCI” is Multidimensional Inventory of Subject Cognitive Impairment. The MISCI is a 10-item assessment that measures cognitive function. The instrument examines 5 cognitive domains: mental clarity, memory, language, executive functioning, and attention/concentration. The first 6 items are positively worded and reflect perceived cognitive abilities and the last 4 items are negatively worded and reflect perceived cognitive difficulties. The same scoring metric is used for both response scales. However, the scores on items 7-10 must be reverse-coded prior to summing the responses to generate the total score due to the negative wording of these items. Here is a list of the categorical responses with the numeric values that make up the total score: • Positively Worded Items 1-6:“Not at All”=1; “A Little Bit”=2; “Somewhat”=3; “Quite a Bit”=4; “Very Much”=5 • Negatively Worded Items 7-10: “Never”=5; “Rarely”=4; “Sometimes”=3; “Often”=2; “Very Often”=1
The total score was calculated by the sum of all the 10 items ranging from 10 to 50, with higher scores indicating better perceived cognitive functioning (i.e. lower impairment). […] The MISCI assessment was collected and analyzed at visits Screening, Day 1, Week 2, Week 4, Week 6, and Follow-up (Week 7). […] Additionally, the treatment group comparisons were analyzed using the paired ttest and nonparametric Wilcoxon signed-rank test.

Assay [4] relates to subjects with fibromyalgia. As to the kind of experiment: QST: visual stimulation task.
Text: To measure non-somatic sensitivity, a series of nonpainful, yet aversive, visual stimuli were presented to each subject. This 10-minute task consisted of 2 different visual stimuli presented in an alternating block design. The control stimulus was a solid color background, whereas experimental stimulus was a flashing annulus checkerboard. These 2 stimuli were interleaved into independent 8- to 30-second blocks throughout the duration of the task. Subjects viewed the stimuli on a calibrated liquid crystal display computer screen designed for high resolution image presentation. Stimuli were presented at varying brightness levels and/or color patterns, and each stimulus presentation was rated on scales of sensory intensity and unpleasantness. […] A redacted version of this task was administered during fMRI.
as §1

[5] abbreviates: Week 2 (placebo) to Week 4 (NYX-2925 20 mg).
The mark [6] stands for this setting: Week 2 (placebo) to Week 6 (NYX-2925 200 mg).

Take `CC(C)C(=O)N1CCC[C@]12CN([C@H](C(N)=O)[C@@H](C)O)C2=O` [NYX-2925, (2S, 3R)-3-hydroxy-2-((R)-5-isobutyryl-1-oxo-2,5-diazaspiro[3.4]octan-2-yl)butanamide]: the “right trapezius pressure pain threshold” value in assay [1] (200 mg, placebo 1.77±1.53, p=0.047) stood at 1.58±1.37 kgf/cm^2. Also, the “left wrist pressure pain threshold” value in assay [1] (NYX-2925 20 mg, baseline 1.60±1.11, p=0.042) amounted to 1.30±1.08 kgf/cm^2. Moreover, the “right wrist pressure pain threshold” value in assay [1] (NYX-2925 20 mg, baseline 1.64±1.30, p=0.021) came to 1.28±1.10 kgf/cm^2; in assay [1] (NYX-2925 200 mg, baseline 1.64±1.30, p=0.042) it was 1.32±1.15 kgf/cm^2. Moreover, the “PROMIS Sleep Disturbance short form score, mean change” value was −0.9 in assay [2] (setting [5]) and −1.6 in assay [2] (setting [6]). Further, the entries for the “MISCI Total score, mean change” value in assay [3] (setting [5]) and in assay [3] (setting [6]) were 1.1 and 0.9, respectively. Also, the “overall visual task unpleasantness” value in assay [4] (NYX-2925 200 mg (Week 6)) was 42.31±29.20; in assay [4] (Week 7 follow-up, p=0.040 vs 200 mg) it was 33.85±28.07. The “rating of unpleasantness evoked by the brightest visual stimulus” value amounted to 59.97±35.46 NRS in assay [4] (NYX-2925 200 mg (Week 6)) and 53.13±36.88 NRS in assay [4] (Week 7 follow-up, p=0.037 vs 200 mg).
